Test results: patent US7476662B2, “Substituted tetracyclic imidazole derivatives, processes for their preparation, pharmaceutical compositions comprising them and their use as a medicine” (Janssen Pharmaceutica N.V., priority 2001, dated 2009)
Each block holds one compound with its values, some of them ahead of it.

Key:
non-traumatised rats = experiment: ICP, MABP and CPP in anaesthetised non-traumatised rats; type: in vivo, rat; details: i.v. 0.5 mg/kg/min during 10 minutes, followed by 0.1 mg/kg/min during 50 min
Description: The effect of Compound 2, Compound 1 and Racemate (comp. 1 and comp. 2) on ICP, MABP and CPP was tested in anaesthetised non-traumatised rats. The compounds were administered i.v. and the same dose was given as in traumatized rats (0.5 mg/kg/min during 10 minutes, followed by 0.1 mg/kg/min during 50 min).

rat brain = experiment: Near-infrared spectroscopy (NIRS) of the rat brain: brain hemoglobin concentration and oxygenation after moderate head injury; type: in vivo; details: 24 h after moderate head injury; i.v. 0.5 mg/kg.min 10 min then 0.1 mg/kg.min 45 min
Description: Near-infrared spectroscopy (NIRS) of the rat brain ‘in vivo’ allows to quantify non-invasively saturation of brain haemoglobin with oxygen (HbSat) and total brain haemoglobin concentration ([HbTot]). The latter is a measure for cerebral blood volume (CBV). Changes in the redox state of the mitochondrial enzyme cytochrome oxidase (CytOx), an indicator for tissue oxygenation, can also be monitored.
HbSat is not affected by compound 1 and the racemate (Comp. 1 and Comp. 2).

Sprague-Dawley rats [1] = experiment: Changes in relevant physiological variables during treatment after severe CHI in rats; type: in vivo, rat; details: median average change over entire treatment period, % change of initial value; 0.5 mg/kg/min 10 min then 0.1 mg/kg/min 50 min, started 20 min after severe CHI; n = 10
Description: (§1) A clinically relevant rat model for traumatic brain injury was used to test the compounds according to the invention. This model mimics several clinical features of traumatic brain injury, such as increased ICP, decreased cerebral perfusion pressure, morphologic alterations including diffuse axonal injury, neuronal necrosis and contusion, impairment of autoregulation of cerebral blood flow and reduction of brain oxygenation and was applied for screening drugs with ICP-lowering effects. Trauma was induced in intubated, isoflurane anesthetized (1.5% isoflurane in a mixture of 30% O2 and 70% N2O) Sprague-Dawley rats (380-400 g) stereotaxically positioned on a table mounted on 4 springs. A 400 g steel cylinder, protected with a 9 mm diameter silicon disc, was dropped on the unprotected skull from a height of either 70 cm or 50 cm (respectively ‘severe’ and ‘moderate’ head injury). The impact area was centered between bregma and lamda. ICP was recorded using a Codman microsensor probe inserted in the parietal cortex. In both severe and moderate head injuries the ICP increased immediately after trauma and remained elevated for several days. The severe head injury mode was used for the evaluation of pharmacological effects immediately after trauma (screening procedure). When survival and recovery from anesthesia was envisaged, the moderate head injury mode was applied. In pharmacological studies, animals with a pathological ICP between 12.5 and 35 mm Hg were included. The changes in ICP, mean arterial blood pressure (MABP) and cerebral perfusion pressure CPP (=[…]) were expressed as percentage of the initial value at onset of the treatment. Screening procedure: On a weekly base, 4 treated groups of 3 rats were compared with 3 saline treated animals. Since conventional statistical methods require a larger amount of animals, a sequential procedure was used. Sequential methods operate in different stages. At each stage, a group of animals was selected as homogeneous as possible. Animals were randomly allocated to either drugs or saline. The procedure allowed to make the decision of rejecting the drug, accepting the drug as active or to continue with a new group of animals in a next stage. Given the biological relevant level of activity that must be detected, the expected fraction of false positive and negative results was known and fixed. A sequential two-sample grouped rank test was used. […] Despite the variability in the individual data, the procedure consistently accepted reference treatments such as mannitol as active, while controls were rejected.
Treatment was started at 20 min after severe head injury and involved administering a dose of 0.5 mg/kg/min during 10 minutes, followed by 0.1 mg/kg/min during 50 min.

Sprague-Dawley rats [2] = experiment: Continuous infusion of 0.1 mg/kg.min in the rat CHI model; type: in vivo
Description: as §1
The significant effect of compound 2 on MABP is much less pronounced when the compound is given at a continuous infusion of 0.1 mg/kg.min. […]

Sprague-Dawley rats [3] = experiment: Influence of anaesthesia on effects on ICP and MABP 24 h after moderate trauma; type: in vivo, rat; details: i.v. infusion 0.1 mg/kg.min 30 min, medians, n=6
Description: as §1
The effects of treatment with Compound 2 (i.v. infusion at a dose of 0.1 mg/kg.min during 30 min) at 24 h after moderate trauma were studied using different anesthetics (isoflurane, chloralhydrate, pentobarbital). […]

traumatized rats = experiment: Repeated application on elevated ICP in traumatized rats; type: in vivo, rat; details: mannitol i.v. 0.125 g/kg/min, same time windows; FIG. 3
Description: Compound 1 was given 2 times with intermittent periods of 20 min at a i.v. dose of 1 mg/kg/min during 10 min, starting a first time 20 min after induction of severe head injury.
Mannitol was given i.v. in the same time windows as Compound 1 at a dose of 0.125 g/kg/min. The control animals received the solvent (containing 10% HP-β-CD, pH 4) only.
This effect is amplified after termination of each, infusion period.

Sprague-Dawley rats [4] = experiment: Closed Head Injury (CHI) model, screening procedure (severe head injury); type: in vivo, rat
Description: as §1

[5] = chloralhydrate 400 mg/kg i.p. anesthesia
[6] = pentobarbital 60 mg/kg i.p. anesthesia

melting point: 133.9 °C
SMILES: Cc1nc2ccccn2c(=O)c1CCN1CCC(C2(C)c3ccccc3CCn3c2nc2ccccc23)CC1 (stereo not drawn) (hydrate or solvate) [Compound 6]

ETCO2 (%) (Sprague-Dawley rats [1]): 2.4%
MABP (%) (Sprague-Dawley rats [1]): 0.6%
Resp. rate(%) (Sprague-Dawley rats [1]): 9.6%
SMILES: Cc1nc2n(C)c3ccccc3n2c(=O)c1CCN1CCC(C2c3ccccc3CCn3c2nc2ccccc23)CC1Cc1ccccc1 (racemic) [Racemate (comp. 1 and comp. 2), pyrimido[1,2-α]benzimidazol-4(10H)-one, 3-[2-[4-(11,12-dihydro-6H-benzimidazo[2,1-b][3]benzazepin-6-yl)-2-(phenylmethyl)-1-piperidinyl]ethyl]-2,10-dimethyl (E)-2-butenedioate (2:3) hydrate (1:1)]
effect on ICP, MABP and CPP (non-traumatised rats): comparable with those obtained in the traumatized animals
effect on saturation of brain haemoglobin with oxygen (HbSat) (rat brain): not affected
effect on total brain haemoglobin concentration [HbTot] (rat brain): do not have a significant effect
CPP (%) (Sprague-Dawley rats [1]): 7.5%
Heart rate(%) (Sprague-Dawley rats [1]): 5.6%
ICP (%) (Sprague-Dawley rats [1]): −19.1%

increases in MABP observed (Sprague-Dawley rats [2]; larger increases not observed): ≤ 20%
median MABP increase at the end of the infusion (Sprague-Dawley rats [2]; n=6): 9%
MABP increases to % of initial value (Sprague-Dawley rats [3]; [5]): 110 % of initial value
MABP increase up to % of initial value at the end of the infusion (Sprague-Dawley rats [3]; [6]): 141 % of initial value
ETCO2 (%) (Sprague-Dawley rats [1]): −4.4%
MABP (%) (Sprague-Dawley rats [1]): 18.8%
Resp. rate(%) (Sprague-Dawley rats [1]): 6.6%
SMILES: Cc1nc2n(C)c3ccccc3n2c(=O)c1CCN1CCC(C2c3ccccc3CCn3c2nc2ccccc23)CC1Cc1ccccc1 (single isomer, unassigned) [Compound 2, (A)[(2α,4β)(A)] 3-[2-(4-(11,12-dihydro-6H-benzimidazo [2,1-b][3]benzazepin-6-yl)-2-(phenylmethyl)-1-piperidinyl]ethyl]-2,10-dimethyl-pyrimido[1,2-a]benzimidazol-4(10H)-one]
effect on ICP, MABP and CPP (non-traumatised rats): comparable with those obtained in the traumatized animals
effect on saturation of brain haemoglobin with oxygen (HbSat) (rat brain): small but statistically significant reduction
effect on total brain haemoglobin concentration [HbTot] (rat brain): do not have a significant effect
maximal reduction of ICP versus infusion preceded by loading dose of 5 mg/kg over 10 min (Sprague-Dawley rats [2]): comparable
time required to obtain maximal reduction of ICP (median) (Sprague-Dawley rats [2]): 30 min
ICP decreases to % of initial value (Sprague-Dawley rats [3]; [5]): 75 % of initial value
ICP decreases to % of initial value (Sprague-Dawley rats [3]; [6]): 64 % of initial value
CPP (%) (Sprague-Dawley rats [1]): 24.2%
Heart rate(%) (Sprague-Dawley rats [1]): −9.6%
ICP (%) (Sprague-Dawley rats [1]): −15.3%

melting point: 224.9 °C
SMILES: Cc1nc2sccn2c(=O)c1CCN1CCC(=C2c3ccccc3CCn3c2nc2ccccc23)CC1 [Compound 5, 6-[2-[4-(11,12-dihydro-6H-benzimidazo [2,1-b][3]benzazepin-6-ylidene)-1-piperidinyl]ethyl]-7-methyl-5H-thiazolo [3,2-a]pyrimidin-5-one]

melting point: 213.2 °C
SMILES: Cc1nc2sccn2c(=O)c1CCN1CCC(C2c3ccccc3C(c3ccccc3)Cn3c2nc2ccccc23)CC1Cc1ccccc1 (stereo not drawn) [Compound 7]

melting point: 178.8 °C
SMILES: Cc1nc2sccn2c(=O)c1CCN1CCC(=C2c3ccccc3C=Cn3c2nc2ccccc23)CC1 [Compound 8, 6-[2-[4-(6H-benzimidazo[2,1-b][3]benzazepin-6-ylidene)-1-piperidinyl]ethyl]-7-methyl-5H-thiazolo[3,2-a]pyrimidin-5-one]

SMILES: OC[C@@H](O)[C@@H](O)[C@H](O)[C@H](O)CO [Mannitol]
effect on ICP during infusion (traumatized rats): lowering of ICP
effect on blood pressure (traumatized rats): increase in blood pressure during each infusion followed by a decrease in blood pressure after termination of each treatment
mean reduction of ICP (Sprague-Dawley rats [4]; i.v. mannitol 3 g over 45 min): about 20%
Decision (based upon sequential statistical evaluation) (Sprague-Dawley rats [4]; severe CHI rats, mannitol infusion of 67 mg/kg/min for 45 min, 5 separate tests): active
Delta %: average change of the relative ICP from baseline over the treatment period (Sprague-Dawley rats [4]; severe CHI rats, mannitol infusion of 67 mg/kg/min for 45 min, 5 separate tests, listed as Mannitol^1, 67 mg/kg): −21.7%
Delta %: average change of the relative ICP from baseline over the treatment period (Sprague-Dawley rats [4]; severe CHI rats, mannitol infusion of 67 mg/kg/min for 45 min, 5 separate tests, listed as Mannitol^2, 67 mg/kg): −22.1%
Delta %: average change of the relative ICP from baseline over the treatment period (Sprague-Dawley rats [4]; severe CHI rats, mannitol infusion of 67 mg/kg/min for 45 min, 5 separate tests, listed as Mannitol^3, 67 mg/kg): −13.0%
Delta %: average change of the relative ICP from baseline over the treatment period (Sprague-Dawley rats [4]; severe CHI rats, mannitol infusion of 67 mg/kg/min for 45 min, 5 separate tests, listed as Mannitol^4, 67 mg/kg): −19.3%
Delta %: average change of the relative ICP from baseline over the treatment period (Sprague-Dawley rats [4]; severe CHI rats, mannitol infusion of 67 mg/kg/min for 45 min, 5 separate tests, listed as Mannitol^5, 67 mg/kg): −19.9%
